This note sets out measurements from ChEMBL document CHEMBL4689842, “EUbOPEN Chemogenomics Library wave 1” (2021).

What all share (assay type): toxicity, cell-based
In one data set the test system is HEK-293T. Put plainly: Incucyte cell viability with HEK293T. The conditions noted are these: human, 10 µM, compound concentration 10 uM.
In the next data set the test system is Fibroblast. The data set can be described thus: Incucyte cell viability with human fibroblast. The conditions noted are these: 10 µM, compound concentration 10 uM.
The test system of a further data set is U2OS. The data set can be described thus: Incucyte cell viability with U2OS. The note with it: human, 10 µM, compound concentration 10 uM.
[1] abbreviates: 0 h, replicate number 1, timepoint 0 hours.
Where [2] appears, read: 6 h, replicate number 1, timepoint 6 hours.
Setting [3] is: 12 h, replicate number 1, timepoint 12 hours.
[4] abbreviates: 18 h, replicate number 1, timepoint 18 hours.
[5] abbreviates: 24 h, replicate number 1, timepoint 24 hours.
Where [6] appears, read: 6 h, replicate number 2, timepoint 6 hours.
Setting [7] is: 12 h, replicate number 2, timepoint 12 hours.
The mark [8] stands for this setting: 18 h, replicate number 2, timepoint 18 hours.
The mark [9] stands for this setting: 24 h, replicate number 2, timepoint 24 hours.
The mark [10] stands for this setting: 0 h, replicate number 2, timepoint 0 hours.
Further: filed as whole numbers so only -1 and 0 and 1 occur.

Regarding `C[S+]([O-])c1ccc(-c2nc(-c3ccncc3)c(-c3ccc(F)cc3)[nH]2)cc1` (centres undefined) [SB-203580], the “Growth Rate” value in the data set on HEK-293T (setting [1]), in the data set with HEK-293T (setting [2]), in the data set on HEK-293T (setting [3]), in the data set with HEK-293T (setting [4]), with HEK-293T (setting [5]) and with Fibroblast (setting [1]) was 0 throughout. The “Growth Rate” value in the data set on Fibroblast (setting [6]) was found to be 0; in the data set with Fibroblast (setting [7]), 1; in the data set on Fibroblast (setting [8]) it was 1; with Fibroblast (setting [9]), 1; with U2OS (setting [6]) it was 0; in the data set on U2OS (setting [7]) it was 1. Moreover, the “Growth Rate” value in the data set on U2OS (setting [4]) and in the data set with U2OS (setting [5]) was 1 each time.

On to `Cc1cc(F)c(C(=O)Nc2cccc(-c3nncn3C(C)C)n2)cc1-n1cnc(C2CC2)c1` [SELONSERTIB], for which the “Growth Rate” value came to 1 with HEK-293T (setting [10]); 0 in the data set on HEK-293T (setting [2]); 0 in the data set on HEK-293T (setting [3]); 0 in the data set with HEK-293T (setting [4]); 0 with HEK-293T (setting [5]); 0 in the data set with Fibroblast (setting [1]). For the same compound, the “Growth Rate” value in the data set with Fibroblast (setting [3]) was 1; in the data set on Fibroblast (setting [4]), 1; in the data set with Fibroblast (setting [5]), 1; in the data set on U2OS (setting [1]), 0; in the data set on U2OS (setting [2]) it was 0; in the data set on U2OS (setting [3]), 0. Moreover, the “Growth Rate” value with U2OS (setting [4]) turned out to be 0; in the data set on U2OS (setting [5]) it was 1; with U2OS (setting [9]) it was 0.

Regarding `Cn1cnc2c(F)c(Nc3ccc(Br)cc3Cl)c(C(=O)NOCCO)cc21` [SELUMETINIB], the “Growth Rate” value with HEK-293T (setting [1]) was determined as 0; in the data set with HEK-293T (setting [10]), 1; with HEK-293T (setting [7]) it was 1; in the data set on HEK-293T (setting [5]) it was 1; with Fibroblast (setting [1]), 0; in the data set with Fibroblast (setting [5]), 1. Also, the “Growth Rate” value in the data set on U2OS (setting [1]) was determined as 1; in the data set with U2OS (setting [2]), 0; in the data set with U2OS (setting [3]), 0; in the data set with U2OS (setting [4]) it was 0; with U2OS (setting [5]) it was 0.

For the compound `C=C1/C(=C\C=C2/CCC[C@]3(C)[C@@H]([C@H](C)/C=C/C=C/C(O)(CC)CC)CC[C@@H]23)C[C@@H](O)C[C@@H]1O` [SEOCALCITOL], the “Growth Rate” value in the data set on HEK-293T (setting [1]) stood at 0; in the data set on HEK-293T (setting [2]), 1; in the data set with HEK-293T (setting [6]) it was 0; with HEK-293T (setting [3]), 0; with HEK-293T (setting [4]), 0; with HEK-293T (setting [5]) it was 0. Further, the “Growth Rate” value in the data set on Fibroblast (setting [1]) was 0; in the data set with Fibroblast (setting [6]) it was 0; with Fibroblast (setting [7]), 0; in the data set on Fibroblast (setting [8]), 1; with Fibroblast (setting [5]), 1; with U2OS (setting [10]), 1. In addition, the “Growth Rate” value with U2OS (setting [6]) is 0; with U2OS (setting [3]) it was 1; with U2OS (setting [4]), 1; in the data set on U2OS (setting [8]), 0; in the data set on U2OS (setting [5]), 1; in the data set on U2OS (setting [9]), 0.

Take `C[C@H](Cc1cc2c(c(C(N)=O)c1)N(CCCO)CC2)NCCOc1ccccc1OCC(F)(F)F` [SILODOSIN]: the “Growth Rate” value in the data set with HEK-293T (setting [1]), with HEK-293T (setting [2]), with HEK-293T (setting [3]), in the data set with HEK-293T (setting [4]), in the data set with HEK-293T (setting [5]) and in the data set with Fibroblast (setting [1]) was 0 each time. The “Growth Rate” value in the data set on Fibroblast (setting [2]) came out at 0; with Fibroblast (setting [3]), 0; in the data set with Fibroblast (setting [4]) it was 0; in the data set with Fibroblast (setting [5]) it was 1; with Fibroblast (setting [9]), 0; in the data set on U2OS (setting [1]) it was 0. Moreover, the “Growth Rate” value is reported as 0 in the data set with U2OS (setting [6]); 1 in the data set with U2OS (setting [3]); 0 in the data set with U2OS (setting [7]); 1 in the data set with U2OS (setting [4]); 1 in the data set on U2OS (setting [5]); 0 with U2OS (setting [9]).

As for `O=S(=O)(c1ccccc1)N(CC(F)(F)F)c1ccc(C(O)(C(F)(F)F)C(F)(F)F)cc1` [T091317], the “Growth Rate” value in the data set on HEK-293T (setting [1]) is given as 0; in the data set on HEK-293T (setting [2]), 0; in the data set with HEK-293T (setting [6]), 1; in the data set on HEK-293T (setting [3]), 0; with HEK-293T (setting [4]), 0; with HEK-293T (setting [5]) it was 0. In addition, the “Growth Rate” value in the data set with Fibroblast (setting [1]), with Fibroblast (setting [2]), in the data set with Fibroblast (setting [3]), in the data set on Fibroblast (setting [4]), with Fibroblast (setting [5]) and in the data set with U2OS (setting [1]) was 0 each time. The “Growth Rate” value with U2OS (setting [3]), with U2OS (setting [4]) and with U2OS (setting [5]) was 1 throughout.

In the case of `CNC(=NCCSCc1csc(N=C(N)N)n1)NC#N` [TIOTIDINE], the “Growth Rate” value in the data set with HEK-293T (setting [1]) is 1; in the data set with HEK-293T (setting [10]), 0; with HEK-293T (setting [2]) it was 0; in the data set on HEK-293T (setting [3]) it was 1; in the data set on HEK-293T (setting [7]), 0; in the data set on HEK-293T (setting [4]) it was 0. For the same compound, the “Growth Rate” value in the data set with HEK-293T (setting [5]) was 0; with Fibroblast (setting [1]), 0; in the data set on Fibroblast (setting [2]), 1; in the data set on Fibroblast (setting [6]) it was 0; in the data set with Fibroblast (setting [3]), 0; with Fibroblast (setting [4]), 0. The “Growth Rate” value came out at 0 in the data set on Fibroblast (setting [5]); 0 with U2OS (setting [1]); 0 in the data set with U2OS (setting [6]); 1 with U2OS (setting [3]); 0 in the data set on U2OS (setting [7]); 0 with U2OS (setting [4]). Also, the “Growth Rate” value in the data set with U2OS (setting [8]) and in the data set with U2OS (setting [5]) was 1 each time.

On to `C[C@@H]1CCN(C(=O)CC#N)C[C@@H]1N(C)c1ncnc2[nH]ccc12.O=C(O)CC(O)(CC(=O)O)C(=O)O` [TOFACITINIB CITRATE], for which the “Growth Rate” value with HEK-293T (setting [1]) stood at 1; in the data set with HEK-293T (setting [10]), 0; in the data set on HEK-293T (setting [2]), 0; with HEK-293T (setting [3]) it was 0; with HEK-293T (setting [7]), 1; with HEK-293T (setting [4]) it was 1. Also, the “Growth Rate” value in the data set with HEK-293T (setting [5]) is 1; in the data set on Fibroblast (setting [1]) it was 0; in the data set with Fibroblast (setting [3]), 1; in the data set with Fibroblast (setting [4]), 1; in the data set on Fibroblast (setting [5]) it was 1; in the data set with U2OS (setting [1]), 0. The “Growth Rate” value in the data set on U2OS (setting [2]), in the data set with U2OS (setting [3]), in the data set on U2OS (setting [4]) and in the data set with U2OS (setting [5]) was 0 each time.

Take `CN1C(=O)[C@@H](N2CCc3cn(Cc4ccccc4)nc3C2=O)COc2ccccc21` [TP-030-1]: the “Growth Rate” value in the data set with HEK-293T (setting [1]) is reported as 0; with HEK-293T (setting [10]), 1; with HEK-293T (setting [9]), 1; in the data set on Fibroblast (setting [10]), 1; in the data set with Fibroblast (setting [2]), 0; in the data set on Fibroblast (setting [3]), 0. The “Growth Rate” value in the data set with Fibroblast (setting [4]) is 0; with Fibroblast (setting [5]), 0; in the data set on U2OS (setting [10]) it was 0; with U2OS (setting [2]) it was 1; in the data set with U2OS (setting [3]), 1; with U2OS (setting [4]), 1. Besides, in the data set with U2OS (setting [5]), the “Growth Rate” value worked out at 1.

Take `CC[C@@H]1[C@H](F)C(=O)N[C@@H]1COc1nccc2cc(C(N)=O)c(OC)cc12` [ZIMLOVISERTIB]: the “Growth Rate” value with HEK-293T (setting [1]) was found to be 0; in the data set with HEK-293T (setting [7]) it was 1; in the data set on HEK-293T (setting [9]) it was 1; in the data set with Fibroblast (setting [10]) it was 0; with Fibroblast (setting [2]), 0; with Fibroblast (setting [3]), 0. Also, the “Growth Rate” value is listed as 0 with Fibroblast (setting [4]); 0 with Fibroblast (setting [5]); 0 with U2OS (setting [1]); 0 in the data set with U2OS (setting [2]); 1 with U2OS (setting [6]); 0 in the data set with U2OS (setting [3]). Moreover, the “Growth Rate” value in the data set with U2OS (setting [4]) and in the data set on U2OS (setting [5]) was 0 in each case.
